In ChEMBL document CHEMBL5291721, “A preclinical secondary pharmacology resource illuminates target-adverse drug reaction associations of marketed drugs” (Nat Commun, 2023):

Key:
[1] = biological target: Delta-type opioid receptor (Homo sapiens, UniProt P41143)
[2] = biological target: 3',5'-cyclic-AMP phosphodiesterase 4D (Homo sapiens, UniProt Q08499); assay type: functional
[3] = biological target: Sodium-dependent dopamine transporter (Homo sapiens, UniProt Q01959)
Adenosine receptor A3 = biological target: T1, Adenosine receptor A3 (Homo sapiens, UniProt P0DMS8)
T1 sequence (P0DMS8 whole entry): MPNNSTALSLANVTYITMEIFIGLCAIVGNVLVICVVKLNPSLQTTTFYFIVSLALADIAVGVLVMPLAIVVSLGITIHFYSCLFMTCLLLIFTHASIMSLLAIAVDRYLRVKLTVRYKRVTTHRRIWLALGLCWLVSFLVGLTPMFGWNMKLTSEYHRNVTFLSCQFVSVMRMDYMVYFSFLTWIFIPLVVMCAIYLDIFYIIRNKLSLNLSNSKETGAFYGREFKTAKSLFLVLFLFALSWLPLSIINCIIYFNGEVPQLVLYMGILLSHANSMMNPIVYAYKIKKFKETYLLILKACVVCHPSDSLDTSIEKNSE

[4] = biological target: T2, 5-hydroxytryptamine receptor 2B (Homo sapiens, UniProt P41595); assay type: functional, cell-based
T2 sequence (P41595 whole entry): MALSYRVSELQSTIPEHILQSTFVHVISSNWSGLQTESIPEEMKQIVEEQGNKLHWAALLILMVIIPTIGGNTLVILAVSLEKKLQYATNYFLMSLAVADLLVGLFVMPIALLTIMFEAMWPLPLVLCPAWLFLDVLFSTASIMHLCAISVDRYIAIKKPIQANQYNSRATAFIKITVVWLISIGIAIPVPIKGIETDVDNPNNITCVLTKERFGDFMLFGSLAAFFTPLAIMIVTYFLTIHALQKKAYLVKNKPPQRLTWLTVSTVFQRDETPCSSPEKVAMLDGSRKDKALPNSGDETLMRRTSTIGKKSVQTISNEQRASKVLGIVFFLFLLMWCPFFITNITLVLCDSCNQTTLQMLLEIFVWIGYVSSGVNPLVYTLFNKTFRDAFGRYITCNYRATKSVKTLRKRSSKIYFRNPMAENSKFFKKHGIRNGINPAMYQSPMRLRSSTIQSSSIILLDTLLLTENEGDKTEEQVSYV

Adenosine receptor A2a = Adenosine receptor A2a (Homo sapiens, UniProt P29274)
Adenosine receptor A2a, sequence (P29274 whole entry): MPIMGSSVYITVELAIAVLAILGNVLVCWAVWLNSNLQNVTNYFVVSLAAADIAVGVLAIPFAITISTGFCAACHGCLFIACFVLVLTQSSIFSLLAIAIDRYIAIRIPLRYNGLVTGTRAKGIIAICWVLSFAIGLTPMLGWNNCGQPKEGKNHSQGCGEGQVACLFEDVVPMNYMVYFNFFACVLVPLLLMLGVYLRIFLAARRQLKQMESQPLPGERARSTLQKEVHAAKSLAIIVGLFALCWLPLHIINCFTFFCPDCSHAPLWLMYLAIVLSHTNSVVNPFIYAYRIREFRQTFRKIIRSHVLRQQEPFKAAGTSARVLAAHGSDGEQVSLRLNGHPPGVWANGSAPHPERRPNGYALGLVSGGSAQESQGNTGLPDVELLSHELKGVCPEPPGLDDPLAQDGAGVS

[5] = biological target: T3, Muscarinic acetylcholine receptor M2 (Homo sapiens, UniProt P08172); assay type: functional, cell-based
T3 sequence (P08172 whole entry): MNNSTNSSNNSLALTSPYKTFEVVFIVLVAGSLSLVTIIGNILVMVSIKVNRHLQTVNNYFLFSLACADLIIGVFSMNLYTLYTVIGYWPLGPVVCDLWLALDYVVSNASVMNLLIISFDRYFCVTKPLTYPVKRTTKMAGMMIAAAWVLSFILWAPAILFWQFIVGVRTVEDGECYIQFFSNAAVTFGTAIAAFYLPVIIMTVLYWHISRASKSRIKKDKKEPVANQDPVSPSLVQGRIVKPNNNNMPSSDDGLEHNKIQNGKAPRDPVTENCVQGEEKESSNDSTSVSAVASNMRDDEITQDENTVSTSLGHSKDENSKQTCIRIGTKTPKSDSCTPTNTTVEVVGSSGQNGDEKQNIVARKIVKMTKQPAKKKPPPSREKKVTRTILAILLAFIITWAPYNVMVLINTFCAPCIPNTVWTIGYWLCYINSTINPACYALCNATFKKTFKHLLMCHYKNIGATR

Melanocortin receptor 3 = Melanocortin receptor 3 (Homo sapiens, UniProt P41968)
Melanocortin receptor 3, sequence (P41968 whole entry): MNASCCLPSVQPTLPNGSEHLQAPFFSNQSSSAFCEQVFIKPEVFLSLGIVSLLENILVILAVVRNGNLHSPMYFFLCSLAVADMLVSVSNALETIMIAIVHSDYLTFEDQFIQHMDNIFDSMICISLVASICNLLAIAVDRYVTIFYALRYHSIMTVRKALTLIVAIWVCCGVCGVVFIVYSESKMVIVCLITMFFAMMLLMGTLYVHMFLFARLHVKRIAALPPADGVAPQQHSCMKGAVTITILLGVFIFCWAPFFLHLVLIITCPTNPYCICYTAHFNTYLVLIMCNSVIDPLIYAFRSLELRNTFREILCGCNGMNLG

[6] = biological target: T4, Neuropeptide Y receptor type 1 (Homo sapiens, UniProt P25929)
T4 sequence (P25929 whole entry): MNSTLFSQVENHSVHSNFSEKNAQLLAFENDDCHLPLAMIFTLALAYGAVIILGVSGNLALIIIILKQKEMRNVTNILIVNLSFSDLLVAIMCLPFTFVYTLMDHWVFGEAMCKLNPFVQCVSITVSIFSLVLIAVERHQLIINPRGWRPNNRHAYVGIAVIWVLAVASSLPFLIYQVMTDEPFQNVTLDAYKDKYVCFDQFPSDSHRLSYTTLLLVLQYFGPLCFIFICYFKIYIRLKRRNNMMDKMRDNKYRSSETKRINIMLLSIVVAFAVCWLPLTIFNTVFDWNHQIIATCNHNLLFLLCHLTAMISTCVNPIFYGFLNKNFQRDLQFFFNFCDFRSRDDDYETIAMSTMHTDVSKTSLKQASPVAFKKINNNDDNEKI

[7] = biological target: Gamma-aminobutyric acid receptor subunit alpha-1 (Rattus norvegicus, UniProt P62813)
Gamma-aminobutyric acid receptor subunit alpha-1, sequence (P62813 whole entry): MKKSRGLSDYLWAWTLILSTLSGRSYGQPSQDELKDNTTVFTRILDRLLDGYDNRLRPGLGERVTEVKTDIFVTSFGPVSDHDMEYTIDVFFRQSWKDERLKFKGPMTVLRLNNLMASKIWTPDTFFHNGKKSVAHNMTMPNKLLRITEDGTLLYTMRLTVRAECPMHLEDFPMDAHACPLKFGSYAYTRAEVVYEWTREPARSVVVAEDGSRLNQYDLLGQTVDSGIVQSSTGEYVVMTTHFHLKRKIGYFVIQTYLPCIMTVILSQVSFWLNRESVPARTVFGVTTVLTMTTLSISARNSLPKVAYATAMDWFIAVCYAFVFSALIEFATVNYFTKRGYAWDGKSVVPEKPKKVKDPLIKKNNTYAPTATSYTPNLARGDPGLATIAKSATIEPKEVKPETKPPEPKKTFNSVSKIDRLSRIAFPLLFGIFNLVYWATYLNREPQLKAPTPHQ

Cannabinoid receptor 1 = Cannabinoid receptor 1 (Homo sapiens, UniProt P21554); assay type: functional, cell-based
Cannabinoid receptor 1, sequence (P21554 whole entry): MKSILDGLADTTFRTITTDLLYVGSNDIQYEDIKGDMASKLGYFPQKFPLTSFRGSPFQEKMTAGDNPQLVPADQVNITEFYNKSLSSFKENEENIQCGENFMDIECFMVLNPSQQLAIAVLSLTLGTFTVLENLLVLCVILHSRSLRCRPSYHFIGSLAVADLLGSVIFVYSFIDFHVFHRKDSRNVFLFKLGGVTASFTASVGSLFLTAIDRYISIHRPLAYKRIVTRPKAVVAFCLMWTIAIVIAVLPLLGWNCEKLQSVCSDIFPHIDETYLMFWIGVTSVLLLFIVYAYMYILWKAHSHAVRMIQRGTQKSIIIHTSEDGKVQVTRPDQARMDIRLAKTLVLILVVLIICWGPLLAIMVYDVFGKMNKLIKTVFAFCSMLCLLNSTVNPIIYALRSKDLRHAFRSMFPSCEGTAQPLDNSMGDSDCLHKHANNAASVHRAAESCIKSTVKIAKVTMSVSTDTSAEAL

[8] = biological target: T5, Alpha-2C adrenergic receptor (Homo sapiens, UniProt P18825); assay type: functional
T5 sequence (P18825 whole entry): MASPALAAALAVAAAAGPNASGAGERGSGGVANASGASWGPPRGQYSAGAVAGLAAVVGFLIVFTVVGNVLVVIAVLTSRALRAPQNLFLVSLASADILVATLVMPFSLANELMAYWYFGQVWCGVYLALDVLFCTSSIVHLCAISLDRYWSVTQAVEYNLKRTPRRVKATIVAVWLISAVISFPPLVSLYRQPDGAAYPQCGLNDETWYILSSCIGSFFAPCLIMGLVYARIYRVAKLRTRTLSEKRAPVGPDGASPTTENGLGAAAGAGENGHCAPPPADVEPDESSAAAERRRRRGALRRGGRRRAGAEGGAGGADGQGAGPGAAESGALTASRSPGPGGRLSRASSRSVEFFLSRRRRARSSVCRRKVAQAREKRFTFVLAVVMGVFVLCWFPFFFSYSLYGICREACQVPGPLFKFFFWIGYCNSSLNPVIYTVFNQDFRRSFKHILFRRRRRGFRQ

[9] = biological target: T3, Muscarinic acetylcholine receptor M2; assay type: functional, cell-based; remark: listed apart in the source
[10] = biological target: T2, 5-hydroxytryptamine receptor 2B; assay type: functional, cell-based; remark: listed apart in the source
[11] = biological target: Sodium-dependent noradrenaline transporter (Homo sapiens, UniProt P23975)
Sodium-dependent noradrenaline transporter, sequence (P23975 whole entry): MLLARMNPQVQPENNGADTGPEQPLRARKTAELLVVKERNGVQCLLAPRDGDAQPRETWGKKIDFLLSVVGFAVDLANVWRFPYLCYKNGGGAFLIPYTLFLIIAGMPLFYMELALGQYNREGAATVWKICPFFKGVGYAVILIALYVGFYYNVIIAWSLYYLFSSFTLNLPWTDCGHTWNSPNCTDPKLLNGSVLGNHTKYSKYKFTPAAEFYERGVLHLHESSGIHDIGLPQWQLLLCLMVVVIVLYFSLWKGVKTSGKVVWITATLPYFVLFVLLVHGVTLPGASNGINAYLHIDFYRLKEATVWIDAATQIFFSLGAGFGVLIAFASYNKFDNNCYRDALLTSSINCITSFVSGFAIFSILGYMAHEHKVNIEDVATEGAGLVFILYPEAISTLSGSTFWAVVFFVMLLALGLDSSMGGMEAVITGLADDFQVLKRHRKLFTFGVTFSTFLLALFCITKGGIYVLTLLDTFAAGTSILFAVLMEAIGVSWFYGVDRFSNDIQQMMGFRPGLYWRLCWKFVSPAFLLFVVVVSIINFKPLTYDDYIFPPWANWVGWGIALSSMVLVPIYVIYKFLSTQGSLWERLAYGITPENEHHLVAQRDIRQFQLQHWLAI

[12] = biological target: Glutamate receptor ionotropic, NMDA 1 (Rattus norvegicus, UniProt P35439)
Adenosine receptor A1 = biological target: T6, Adenosine receptor A1 (Homo sapiens, UniProt P30542)
T6 sequence (P30542 whole entry): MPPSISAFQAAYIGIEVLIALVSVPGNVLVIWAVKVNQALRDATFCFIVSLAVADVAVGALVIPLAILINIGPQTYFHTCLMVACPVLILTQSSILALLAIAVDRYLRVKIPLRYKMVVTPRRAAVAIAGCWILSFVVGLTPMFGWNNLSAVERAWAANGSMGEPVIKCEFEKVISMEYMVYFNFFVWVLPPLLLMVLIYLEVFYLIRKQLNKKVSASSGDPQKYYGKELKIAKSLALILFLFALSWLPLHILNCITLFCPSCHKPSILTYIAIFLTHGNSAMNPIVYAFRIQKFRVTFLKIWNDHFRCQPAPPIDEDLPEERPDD
Further: assay procedure not described here.

Sodium-dependent dopamine transporter, sequence (Q01959 whole entry): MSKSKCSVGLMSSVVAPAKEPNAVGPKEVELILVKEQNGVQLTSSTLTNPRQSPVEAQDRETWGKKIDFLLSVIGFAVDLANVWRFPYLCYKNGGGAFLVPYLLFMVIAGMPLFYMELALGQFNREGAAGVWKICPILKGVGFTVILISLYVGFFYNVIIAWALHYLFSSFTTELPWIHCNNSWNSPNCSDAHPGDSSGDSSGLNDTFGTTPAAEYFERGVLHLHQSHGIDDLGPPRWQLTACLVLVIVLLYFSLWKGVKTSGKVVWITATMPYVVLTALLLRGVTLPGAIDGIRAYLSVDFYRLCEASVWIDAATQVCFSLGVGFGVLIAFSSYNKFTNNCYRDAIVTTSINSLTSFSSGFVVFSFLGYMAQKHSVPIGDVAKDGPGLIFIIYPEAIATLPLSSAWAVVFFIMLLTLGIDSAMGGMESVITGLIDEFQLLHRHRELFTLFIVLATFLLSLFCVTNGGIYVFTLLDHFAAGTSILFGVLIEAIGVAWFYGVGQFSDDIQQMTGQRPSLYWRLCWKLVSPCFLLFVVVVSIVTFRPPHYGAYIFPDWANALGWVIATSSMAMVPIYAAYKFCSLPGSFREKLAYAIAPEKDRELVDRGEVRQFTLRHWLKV
Delta-type opioid receptor, sequence (P41143 whole entry): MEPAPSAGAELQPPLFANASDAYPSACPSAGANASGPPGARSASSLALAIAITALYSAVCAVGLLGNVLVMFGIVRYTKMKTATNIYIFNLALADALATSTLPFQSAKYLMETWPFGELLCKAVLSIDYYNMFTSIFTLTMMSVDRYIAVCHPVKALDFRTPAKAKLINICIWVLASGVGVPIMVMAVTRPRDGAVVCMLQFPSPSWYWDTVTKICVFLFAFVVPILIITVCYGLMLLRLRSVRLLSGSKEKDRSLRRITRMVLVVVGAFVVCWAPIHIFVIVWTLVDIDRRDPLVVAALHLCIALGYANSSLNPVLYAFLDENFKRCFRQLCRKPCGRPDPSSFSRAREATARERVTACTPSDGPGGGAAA
3',5'-cyclic-AMP phosphodiesterase 4D, sequence (Q08499 whole entry): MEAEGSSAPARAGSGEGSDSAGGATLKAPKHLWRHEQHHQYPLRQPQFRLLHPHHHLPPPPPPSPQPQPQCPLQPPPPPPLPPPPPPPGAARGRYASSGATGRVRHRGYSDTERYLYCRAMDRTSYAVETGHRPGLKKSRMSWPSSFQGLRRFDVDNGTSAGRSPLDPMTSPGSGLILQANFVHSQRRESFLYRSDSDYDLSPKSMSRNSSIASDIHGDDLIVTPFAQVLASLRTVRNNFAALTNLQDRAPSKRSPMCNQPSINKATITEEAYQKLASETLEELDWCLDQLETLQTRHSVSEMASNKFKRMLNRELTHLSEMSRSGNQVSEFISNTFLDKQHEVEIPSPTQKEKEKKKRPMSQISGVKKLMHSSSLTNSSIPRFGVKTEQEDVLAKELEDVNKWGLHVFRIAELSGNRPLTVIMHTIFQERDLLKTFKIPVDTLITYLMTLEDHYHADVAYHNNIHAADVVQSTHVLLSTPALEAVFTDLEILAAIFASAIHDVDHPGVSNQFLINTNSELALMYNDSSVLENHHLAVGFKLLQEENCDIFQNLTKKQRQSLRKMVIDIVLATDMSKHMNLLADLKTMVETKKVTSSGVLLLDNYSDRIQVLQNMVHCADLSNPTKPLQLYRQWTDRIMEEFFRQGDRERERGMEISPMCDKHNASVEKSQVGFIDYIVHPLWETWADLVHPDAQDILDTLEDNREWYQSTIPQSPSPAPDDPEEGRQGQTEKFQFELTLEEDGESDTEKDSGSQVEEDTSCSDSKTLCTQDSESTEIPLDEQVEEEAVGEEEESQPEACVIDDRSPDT

NC1CCN(c2c(F)cc3c(=O)c(C(=O)O)cn(C4CC4)c3c2Cl)C1 (stereo not drawn) [CLINAFLOXACIN]
AC50 [1]: 18 µM

CN(C)CC/C=C1\c2ccccc2CSc2ccccc21 [DOTHIEPIN]
AC50 [2]: > 30 µM | AC50 [3]: 20 µM | AC50 (Adenosine receptor A3): > 30 µM | AC50 [4]: 3.6 µM | AC50 (Adenosine receptor A2a): > 30 µM | AC50 [5]: > 30 µM | AC50 (Melanocortin receptor 3): 25 µM | AC50 [6]: > 30 µM | AC50 [7]: > 30 µM | AC50 [1]: > 30 µM | AC50 (Cannabinoid receptor 1): > 30 µM | AC50 [8]: 9.8 µM | AC50 [9]: 1.4 µM | AC50 [10]: > 30 µM | AC50 [11]: 0.8 µM | AC50 [12]: > 30 µM

Nc1ccncc1N [AMIFAMPRIDINE]
AC50 (Adenosine receptor A1): > 30 µM

C=CCN1C[C@H](C(=O)N(CCCN(C)C)C(=O)NCC)C[C@@H]2c3cccc4[nH]cc(c34)C[C@H]21 [CABERGOLINE]
AC50 [2]: > 30 µM | AC50 [3]: 5.4 µM | AC50 (Adenosine receptor A3): > 10 µM | AC50 (Adenosine receptor A2a): > 10 µM | AC50 [5]: > 30 µM | AC50 (Melanocortin receptor 3): > 10 µM | AC50 [6]: > 10 µM | AC50 [7]: > 10 µM | AC50 [1]: > 30 µM | AC50 (Cannabinoid receptor 1): > 30 µM | AC50 [8]: 0.3 µM | AC50 [9]: > 30 µM | AC50 [10]: 0.189 µM | AC50 [11]: 8.7 µM | AC50 [12]: > 10 µM

CC(=O)OCC1=C(C(=O)O)N2C(=O)[C@@H](NC(=O)[C@H](N)c3ccccc3)[C@H]2SC1 [CEPHALOGLYCIN]
AC50 (Adenosine receptor A1): > 30 µM

CCCC1O[C@@H]2C[C@H]3[C@@H]4CCC5=CC(=O)C=C[C@]5(C)[C@H]4[C@@H](O)C[C@]3(C)[C@]2(C(=O)CO)O1 (stereo partly drawn) [BUDESONIDE]
AC50 [2]: > 30 µM | AC50 [3]: > 10 µM | AC50 (Adenosine receptor A3): > 10 µM | AC50 [4]: > 10 µM | AC50 (Adenosine receptor A2a): > 10 µM | AC50 [5]: > 10 µM | AC50 (Melanocortin receptor 3): > 10 µM | AC50 [6]: > 10 µM | AC50 [7]: > 10 µM | AC50 [1]: > 30 µM | AC50 [8]: > 10 µM | AC50 [9]: > 10 µM | AC50 [10]: > 10 µM | AC50 [11]: > 10 µM | AC50 [12]: > 10 µM

CCC(CC)(CC(=O)Nc1cccc(/C=C/c2nc(C3CCC3)cs2)c1)C(=O)O
AC50 (Adenosine receptor A1): > 30 µM | AC50 [3]: > 30 µM | AC50 (Adenosine receptor A3): 13.9 µM | AC50 (Adenosine receptor A2a): > 30 µM | AC50 (Melanocortin receptor 3): > 30 µM | AC50 [6]: > 30 µM | AC50 [11]: > 30 µM

COc1ccc(C(=O)Nc2ccccc2CCC2CCCCN2C)cc1 (stereo not drawn) [ENCAINIDE]
AC50 [2]: > 30 µM | AC50 [3]: > 10 µM | AC50 (Adenosine receptor A3): > 30 µM | AC50 [4]: > 10 µM | AC50 (Adenosine receptor A2a): > 30 µM | AC50 [5]: > 10 µM | AC50 (Melanocortin receptor 3): > 30 µM | AC50 [6]: > 30 µM | AC50 [7]: > 10 µM | AC50 [1]: > 30 µM | AC50 (Cannabinoid receptor 1): > 30 µM | AC50 [8]: > 10 µM | AC50 [9]: > 10 µM | AC50 [10]: > 10 µM | AC50 [11]: > 10 µM | AC50 [12]: > 10 µM

CCCCS(=O)(=O)N[C@@H](Cc1ccc(OCCCCC2CCNCC2)cc1)C(=O)O [TIROFIBAN]
AC50 (Adenosine receptor A1): > 30 µM
